Assay results published in patent US20240150293A1, “SPIROCYCLOHEXANE DERIVATIVES, PHARMACEUTICAL COMPOSITIONS CONTAINING THEM AND THEIR USES AS ANTI-APOPTOTIC INHIBITORS” (LES LABORATOIRES SERVIER, priority 2021, published 2024).
Where two headings read alike, the source gives them in different places.

Tests used:
[1] = target: Mcl-1 protein (UniProtKB Q07820) (Homo sapiens (Human), UniProt Q07820); test: Inhibition of Mcl-1 by the fluorescence polarisation assay (Example A, Method A); format: binding; conditions: fluorescence polarization assay
In short: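 Protein (5 nM) and fluorescein-tagged peptide tracer (1 nM) incubated with 11-point compound series for 2 h at room temperature in HEPES/NaCl/Tween 20 buffer, pH 7.4, 5% DMSO. Displacement read as decrease in polarisation; IC50 fitted by 4-parameter logistic, converted to Ki (cKi or eKi).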

[2] = test system: H929 multiple myeloma tumor line; test: In vitro cytotoxicity, MTT assay (Example B, Method A); format: cell-based; conditions: H929 cells, 48 hours exposure, read-out: C50
Method: The cytotoxicity studies were carried out on the H929 multiple myeloma tumor line.
The cells are distributed onto microplates and exposed to the test compounds for 48 hours. The cell viability is then quantified by a colorimetric assay, the Microculture Tetrazolium Assay (Carmichael et al, Cancer Res. 1987, 47, 939-942).
The results are expressed in C50 which means concentration corresponding to […] of effect/inhibition.

Chain of Mcl-1 protein (Q07820 whole entry): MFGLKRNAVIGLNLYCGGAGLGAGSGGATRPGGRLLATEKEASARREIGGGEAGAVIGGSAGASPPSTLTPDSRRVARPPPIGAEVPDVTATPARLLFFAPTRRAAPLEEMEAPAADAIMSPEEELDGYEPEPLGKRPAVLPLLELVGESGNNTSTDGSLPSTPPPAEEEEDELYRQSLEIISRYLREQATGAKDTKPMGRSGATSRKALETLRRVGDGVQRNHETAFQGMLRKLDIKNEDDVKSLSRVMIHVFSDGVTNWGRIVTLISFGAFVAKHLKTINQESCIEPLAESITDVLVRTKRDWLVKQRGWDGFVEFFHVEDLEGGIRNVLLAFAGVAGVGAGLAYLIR

Compound	Ki [1] [nM]	IC50 ([2]; Homo sapiens, NCI-H929, 48 h) [µM]	IC50 [2] [µM]
CC(C)C(COc1ccnc2ccsc12)CC1Cc2ccccc2[C@]12CC[C@@](Nc1cccc(Cl)c1)(C(=O)O)CC2 (single isomer, unassigned) [Example 522, (1r,4r)-4-(3-chloroanilino)-2′-(3-methyl-2-{[(thieno[3,2-b]pyridin-7-yl)oxy]methyl}butyl)-2′,3′-dihydrospiro[cyclohexane-1,1′-indene]-4-carboxylic acid]	6360	17.1	–
C[C@@H](COc1ncnc2c1CCC2)CC1Cc2ccccc2[C@]12CC[C@@](Nc1cccc(Cl)c1)(C(=O)O)CC2 (stereo partly drawn) [Example 593, (1r,4R)-4-(3-chloroanilino)-2′-{(2R)-3-[(6,7-dihydro-5H-cyclopenta[d]pyrimidin-4-yl)oxy]-2-methylpropyl}-2′,3′-dihydrospiro[cyclohexane-1,1′-indene]-4-carboxylic acid]	14.5	2.01	–
O=C(O)[C@]1(Nc2cccc(Cl)c2)CC[C@]2(CC1)C(COCCc1ccccc1)=Cc1ccccc12 [Example 409, (1s,4s)-4-(3-chloroanilino)-2′-[(2-phenylethoxy)methyl]spiro[cyclohexane-1,1′-indene]-4-carboxylic acid]	155	30	–
Cc1csc2nccc(OC[C@H](C)C[C@H]3Cc4ccccc4[C@]34CC[C@@](Nc3cccc(Cl)c3)(C(=O)O)CC4)c12 [Example 605, (1r,2′S,4S)-4-(3-chloroanilino)-2′-{(2R)-2-methyl-3-[(3-methylthieno[2,3-b]pyridin-4-yl)oxy]propyl}-2′,3′-dihydrospiro[cyclohexane-1,1′-indene]-4-carboxylic acid]	24.2	0.906	–
O=C(O)[C@]1(Nc2cccc(Cl)c2)CC[C@@]2(CC1)c1ccccc1C[C@@H]2C[C@@H](COc1ccnc2ccsc12)c1ccccc1 [Example 545, (1r,2′S,4S)-4-(3-chloroanilino)-2′-{(2R)-2-phenyl-3-[(thieno[3,2-b]pyridin-7-yl)oxy]propyl}-2′,3′-dihydrospiro[cyclohexane-1,1′-indene]-4-carboxylic acid]	3490	8.92	–
CC(C)Oc1ccc2c(c1)[C@]1(CC[C@@](Nc3cccc(Cl)c3)(C(=O)O)CC1)C(c1cccc(Oc3ccccc3)c1)C2 (single isomer, unassigned) [Example 387, (1r,4r)-4-(3-chloroanilino)-2′-(3-phenoxyphenyl)-6′-[(propan-2-yl)oxy]-2′,3′-dihydrospiro[cyclohexane-1,1′-indene]-4-carboxylic acid]	220	9.59	–
CC1CCc2nccc(OC[C@H](C)CC3Cc4ccccc4[C@]34CC[C@@](Nc3cccc(Cl)c3)(C(=O)O)CC4)c21 (mixture of isomers) [Example 602, (1r,4R)-4-(3-chloroanilino)-2′-{(2R)-2-methyl-3-[(5-methyl-6,7-dihydro-5H-cyclopenta[b]pyridin-4-yl)oxy]propyl}-2′,3′-dihydrospiro[cyclohexane-1,1′-indene]-4-carboxylic acid]	3.37	0.518	–
O=C(O)[C@]1(Nc2cccc(Cl)c2)CC[C@@]2(CC1)c1ccccc1C[C@@H]2C[C@@H](COc1ccncc1)c1ccccc1 [Example 552, (1r,2′S,4S)-4-(3-chloroanilino)-2′-{(2R)-2-phenyl-3-[(pyridin-4-yl)oxy]propyl}-2′,3′-dihydrospiro[cyclohexane-1,1′-indene]-4-carboxylic acid]	110	3.38	–
O=C(O)[C@]1(Nc2cccc(Cl)c2)CC[C@@]2(CC1)c1ccccc1CC2CCCOc1ncnc2c1CCC2 (mixture of isomers) [Example 459, (1r,4r)-4-(3-chloroanilino)-2′-{3-[(6,7-dihydro-5H-cyclopenta[d]pyrimidin-4-yl)oxy]propyl}-2′,3′-dihydrospiro[cyclohexane-1,1′-indene]-4-carboxylic acid]	85.7	6.96	–
O=C(O)[C@]1(Nc2cccc(Cl)c2)CC[C@]2(CC1)C(C#CCOc1ccccc1)=Cc1ccccc12 [Example 172, (1s,4s)-4-(3-chloroanilino)-2′-(3-phenoxyprop-1-yn-1-yl)spiro[cyclohexane-1,1′-indene]-4-carboxylic acid]	55.8	18.7	–
O=C(O)[C@]1(Nc2cccc(Cl)c2)CC[C@@]2(CC1)c1ccccc1C[C@H]2CCCOc1ccnc2ccsc12 [Example 439, (1r,2′R,4R)-4-(3-chloroanilino)-2′-{3-[(thieno[3,2-b]pyridin-7-yl)oxy]propyl}-2′,3′-dihydrospiro[cyclohexane-1,1′-indene]-4-carboxylic acid]	68.6	3.88	–
CC(C)C(COc1cccnc1)CC1Cc2ccccc2[C@]12CC[C@@](Nc1cccc(Cl)c1)(C(=O)O)CC2 (single isomer, unassigned) [Example 526, (1r,4r)-4-(3-chloroanilino)-2′-(3-methyl-2-{[(pyridin-3-yl)oxy]methyl}butyl)-2′,3′-dihydrospiro[cyclohexane-1,1′-indene]-4-carboxylic acid]	1860	30	–
CC(C)C(COc1ccncc1)CC1Cc2ccccc2[C@]12CC[C@@](Nc1cccc(Cl)c1)(C(=O)O)CC2 (single isomer, unassigned) [Example 532, (1r,4r)-4-(3-chloroanilino)-2′-(3-methyl-2-{[(pyridin-4-yl)oxy]methyl}butyl)-2′,3′-dihydrospiro[cyclohexane-1,1′-indene]-4-carboxylic acid]	809	–	12.6
Cc1cc2c(OCCC[C@@H]3Cc4ccccc4[C@]34CC[C@@](Nc3cccc(Cl)c3)(C(=O)O)CC4)cccc2[nH]1 [Example 481, (1r,2′R,4R)-4-(3-chloroanilino)-2′-{3-[(2-methyl-1H-indol-4-yl)oxy]propyl}-2′,3′-dihydrospiro[cyclohexane-1,1′-indene]-4-carboxylic acid]	72.1	5.08	–
O=C(O)C1(Nc2cccc(Br)c2)CCC2(CCc3ccccc32)CC1 (stereo not shown) [Example 57, 4-(3-bromoanilino)-2′,3′-dihydrospiro[cyclohexane-1,1′-indene]-4-carboxylic acid]	934	30	–
CC(C)C(COc1ccnc2ccsc12)CC1Cc2ccccc2C12CCC(Nc1cccc(Cl)c1)(C(=O)O)CC2 (stereo not shown) [Example 525, (1r,4r)-4-(3-chloroanilino)-2′-(3-methyl-2-{[(thieno[3,2-b]pyridin-7-yl)oxy]methyl}butyl)-2′,3′-dihydrospiro[cyclohexane-1,1′-indene]-4-carboxylic acid]	293	–	2.49
CC(C)C(COc1cccnc1)CC1Cc2ccccc2[C@]12CC[C@@](Nc1cccc(Cl)c1)(C(=O)O)CC2 (single isomer, unassigned) [Example 527, (1r,4r)-4-(3-chloroanilino)-2′-(3-methyl-2-{[(pyridin-3-yl)oxy]methyl}butyl)-2′,3′-dihydrospiro[cyclohexane-1,1′-indene]-4-carboxylic acid]	8940	–	16.4
C[C@@H](COc1ccnc2c1CC(C)(C)CC2)C[C@H]1Cc2ccccc2[C@]12CC[C@@](Nc1cccc(Cl)c1)(C(=O)O)CC2 [Example 652, (1r,2′S,4S)-4-(3-chloroanilino)-2′-{(2R)-3-[(6,6-dimethyl-5,6,7,8-tetrahydroquinolin-4-yl)oxy]-2-methylpropyl}-2′,3′-dihydrospiro[cyclohexane-1,1′-indene]-4-carboxylic acid]	20.3	4.71	–
COc1ccc2c(c1)[C@]1(CC[C@@](Nc3cccc(Cl)c3)(C(=O)O)CC1)C(c1cccc(Oc3ccccc3)c1)C2 (single isomer, unassigned) [Example 378, (1r,4r)-4-(3-chloroanilino)-6′-methoxy-2′-(3-phenoxyphenyl)-2′,3′-dihydrospiro[cyclohexane-1,1′-indene]-4-carboxylic acid]	63.2	9.24	–
C[C@@H]1CCc2ncnc(OCCCC3Cc4ccccc4[C@]34CC[C@@](Nc3cccc(Cl)c3)(C(=O)O)CC4)c21 (stereo partly drawn) [Example 472, (1r,4R)-4-(3-chloroanilino)-2′-(3-{[(5R)-5-methyl-6,7-dihydro-5H-cyclopenta[d]pyrimidin-4-yl]oxy}propyl)-2′,3′-dihydrospiro[cyclohexane-1,1′-indene]-4-carboxylic acid]	33	5.04	–
Cc1c[nH]c2cccc(OCCC[C@@H]3Cc4ccccc4[C@]34CC[C@@](Nc3cccc(Cl)c3)(C(=O)O)CC4)c12 [Example 483, (1r,2′R,4R)-4-(3-chloroanilino)-2′-{3-[(3-methyl-1H-indol-4-yl)oxy]propyl}-2′,3′-dihydrospiro[cyclohexane-1,1′-indene]-4-carboxylic acid]	174	4.17	–
Cc1cccc(C2Cc3ccccc3[C@]23CC[C@@](Nc2cccc(Cl)c2)(C(=O)O)CC3)c1 (single isomer, unassigned) [Example 346, (1r,4r)-4-(3-chloroanilino)-2′-(3-methylphenyl)-2′,3′-dihydrospiro[cyclohexane-1,1′-indene]-4-carboxylic acid]	9290	–	30
O=C(O)[C@]1(Nc2cccc(Cl)c2)CC[C@@]2(CC1)c1ccccc1C[C@H]2C[C@@H](COc1cccnc1)c1ccccc1 [Example 549, (1r,2′R,4R)-4-(3-chloroanilino)-2′-{(2R)-2-phenyl-3-[(pyridin-3-yl)oxy]propyl}-2′,3′-dihydrospiro[cyclohexane-1,1′-indene]-4-carboxylic acid]	9480	17.9	–
